The values below come from PMC7022378, “Structural Analyses on the Deamidation of N-Terminal Asn in the Human N-Degron Pathway” (Biomolecules, 2020).

Residue numbers refer to the chain shown, from its start.

The target of one experiment is T1, NTAN1 (wild-type) (Homo sapiens, UniProt Q96AB6).
T1 construct: The gene for full-length NTAN1 was cloned into pET-21a(+); made in house; host or cells: E. coli Rosetta 2(DE3)
T1 sequence (Q96AB6 1-310): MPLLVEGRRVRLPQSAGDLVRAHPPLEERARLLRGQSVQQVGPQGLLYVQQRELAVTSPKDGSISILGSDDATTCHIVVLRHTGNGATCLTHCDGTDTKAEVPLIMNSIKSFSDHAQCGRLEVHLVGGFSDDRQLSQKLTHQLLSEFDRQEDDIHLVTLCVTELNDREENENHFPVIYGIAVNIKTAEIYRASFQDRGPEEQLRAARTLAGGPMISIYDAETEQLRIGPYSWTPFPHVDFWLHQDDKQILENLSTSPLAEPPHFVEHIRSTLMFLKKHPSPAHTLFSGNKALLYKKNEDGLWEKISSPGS
As to the kind of experiment: In vitro deamidation assay quantified by LC-MS, wild-type NTAN1. The format is biochemical. The note with it: 200 mM NaCl, 10 mM HEPES-NaOH (pH 7.0); for Deamidation activity on NXAAR peptides: 100 μM peptide, 37 °C, 1-20 min, three independent experiments; for Deamidation with 0.16 μM NTAN1: 0.16 μM NTAN1, 37 °C. As to the method:
We synthesized codon-optimized NTAN1 gene of which sequence information was provided by Georgiou et al. for protein expression in Escherichia coli. The gene for full-length NTAN1 was cloned into pET-21a(+) (Novagen, Darmstadt, Germany) between Nde1 and Xho1 restriction sites to have C-terminal hexahistidine tag. NTAN1 was overexpressed in the Rosetta 2(DE3), E. coli strain (Novagen, Darmstadt, Germany). The transformed cells were grown in Luria-Bertani media containing ampicillin at 37 °C until the optical density at 600 nm reached 0.5 and protein expression was induced by 0.5 mM isopropyl β-D-1-thiogalactopyranoside. The cells were shake-incubated for additional for 16 h at 18 °C and harvested by centrifugation at 6000 × g for 10 min (Figure S1). The harvested cells were resuspended in a buffer containing 500 mM NaCl, 20 mM Tris-HCl (pH 7.5), 35 mM imidazole, and 1 mM phenylmethylsulfonyl fluoride and subsequently lysed by sonication. Lysed cells were centrifuged at 35,000 × g for 1 h. The resultant supernatant was filtered with 0.45 μm filter device (Sartorius, Göttingen, Germany) and loaded onto a 5-mL HiTrap Chelating HP column (GE Healthcare, Chicago, IL, USA) which had been pre-charged with Ni^2+ and equilibrated with a buffer containing 500 mM NaCl, 20 mM Tris-HCl (pH 7.5), and 35 mM imidazole. After nonspecifically bound proteins were eluted, the retained proteins were eluted by addition of an increasing gradient of a buffer containing 500 mM NaCl, 20 mM Tris-HCl (pH 7.5), and 1 M imidazole. The proteins were loaded onto a HiPrep Desalting 26/10 column (GE Healthcare, Chicago, IL, USA) and eluted with a buffer containing 50 mM NaCl and 20 mM Tris-HCl (pH 7.5) The eluates were loaded onto a HiTrap 5-mL Q HP column (GE Healthcare, Chicago, IL, USA) which had been equilibrated with a buffer containing 50 mM NaCl and 20 mM Tris-HCl (pH 7.5). After nonspecifically bound proteins were eluted, the retained proteins were eluted with addition of increasing gradient of a buffer containing 1 M NaCl and 20 mM Tris-HCl (pH 7.5). Finally, the proteins were concentrated, loaded onto a HiLoad 16/600 Superdex 200 pg column (GE Healthcare, Chicago, IL, USA), and eluted with a buffer containing 200 mM NaCl and 10 mM HEPES-NaOH (pH 7.0). Purity of the protein fractions was checked by sodium dodecyl sulfate-polyacrylamide gel electrophoresis after each purification step.
Peptides with Nt-Asn which mimic potential substrates of NTAN1 were synthesized: NRA, NRAA, NRAAA, NRQVA, NRQVAA, NRQVAAA, NFAAR, NLAAR, NRAAR, NAAAR, NNAAR, NPAAR, NGAAR, and NDAAR. Non-Nt-Asn peptides, QRAAA and VRAAA, were also synthesized. NTAN1 (at concentrations of 0.5 μM, 0.16 μM, or 0.04 μM) and the peptides (at a concentration of 100 μM) were mixed and incubated at 37 °C in a buffer containing 200 mM NaCl and 10 mM HEPES-NaOH (pH 7.0). The reactants sampled at various incubation time points (of 1, 2, 5, 10, and 20 min) were heat-inactivated at 95 °C for 10 min to stop further reaction. Subsequently, the samples were centrifuged at 20,000 × g and diluted 1/50 times with double-deionized water (DW) for liquid chromatography-mass spectrometry (LC-MS) analysis. The deamidation coefficient of peptides catalyzed by NTAN1 was assessed by the slope of exponential curve drawn from the concentration of the substrate over incubation time.
The peptides were quantified by an LC-MS system (1260 Infinity/6430 Triple Quad, Agilent Technologies) equipped with a binary pump (G1312B), a thermostated column compartment (G1316C), a thermostat (G1330B), and an autosampler (G1367E). Chromatographic separation was carried out by injecting an aliquot (2 µL) of analytical sample into a Kinetex C18 column (2.6 μm, 100 Å, 100 × 4.6 mm; Phenomenex, Torrance, CA, USA) with a C18 guard column (4 × 2.0 mm; Phenomenex, Torrance, CA, USA). The mobile phase consisted of acetonitrile and DW (30:70, v/v) with 0.2% (v/v) formic acid. […]

Experiment [1] addresses T2, NTAN1 S254A mutant (human) (UniProt Q96AB6).
T2 sequence: T1 sequence (Q96AB6 1-310) with S254A

Experiment [2] concerns the target T3, N-terminal asparagine amidohydrolase 1 (NTAN1) C75S mutant (human, UniProt Q96AB6 1-310, C75S).
T3 construct: N-terminal asparagine amidohydrolase 1 (NTAN1), human, full length, 310 residues; codon-optimized synthetic gene in pET-21a(+); catalytic Cys75 changed to Ser; C75S is not in the list of mutants in section 2.2; No step that cleaves the tag is described; source: E. coli Rosetta 2(DE3), purified as for NTAN1 (Ni2+ chelating, Q anion exchange, Superdex 200)
T3 sequence (looked up): T1 sequence (Q96AB6 1-310) with C75S
As to the kind of experiment: SPR; NTAN1 C75S amine-coupled to a CM5 chip (3000 RU), Biacore T200; peptides at 1.95-62.50 μM injected for 120 s, 30 μL/min; 150 mM NaCl, 10 mM HEPES-NaOH pH 7.2, 0.1 mM TCEP, 0.001% polysorbate 20; 1:1 Langmuir model. As to conditions: both partners purified.

For experiment [3], the target named is T3, N-terminal asparagine amidohydrolase 1 …. As to the kind of experiment: crystal structure; crystals of NTAN1 C75S soaked in reservoir solution with 10 mM synthetic peptide for 16 hr; two molecules in the asymmetric unit. The note with it: both partners purified.
[4] abbreviates: 0.5 μM NTAN1 (Figure 2d; NNAAR also at 0.04 μM, Figure 2c).

In the case of “NPAAR [NXAAR substrate peptide, second-position Pro]”, the “Deamidation activity on NXAAR peptides” value on NTAN1 (wild-type) (setting [4]) is recorded as “low deamidation activities”. Consider “NRQVAA [synthesized modified Nt-Asn peptide, model substrate of NTAN1]”, for which the “Deamidation with 0.16 μM NTAN1” value on NTAN1 (wild-type) was “deamidated too rapidly”. Take “NFAAR [NXAAR substrate pentapeptide, second-position Phe]”: the “Deamidation activity on NXAAR peptides” value at NTAN1 (wild-type) (0.04 μM NTAN1 (Figure 2c)) was “most efficiently deamidated”. On to “NNAAR [NXAAR substrate peptide, second-position Asn]”, for which, on NTAN1 (wild-type) (setting [4]), the “Deamidation activity on NXAAR peptides” value is given as “low deamidation activities”.

With “NRAAR [NXAAR substrate peptide, second-position Arg]”, the “Deamidation activity on NXAAR peptides” value at NTAN1 (wild-type) (0.04 μM NTAN1 (Figure 2c)) was “moderate deamidation activity”. Regarding “NDAAR [NXAAR substrate peptide, second-position Asp]”, on NTAN1 (wild-type) (setting [4]), the “Deamidation activity on NXAAR peptides” value is recorded as “low deamidation activities”. With “NRQVAAA [synthesized modified Nt-Asn peptide, model substrate of NTAN1]”, the “Deamidation with 0.16 μM NTAN1” value on NTAN1 (wild-type) is “deamidated too rapidly”. For the molecule “NLAAR [NXAAR substrate pentapeptide, second-position Leu]”, the “Deamidation activity on NXAAR peptides” value on NTAN1 (wild-type) (0.04 μM NTAN1 (Figure 2c)) was “most efficiently deamidated”. In the case of “NRQVA [synthesized modified Nt-Asn peptide, model substrate of NTAN1]”, the “Deamidation with 0.16 μM NTAN1” value on NTAN1 (wild-type) is “deamidated too rapidly”.

With “NGAAR [NXAAR substrate peptide, second-position Gly]”, the “Deamidation activity on NXAAR peptides” value on NTAN1 (wild-type) (setting [4]) is given as “low deamidation activities”.

As to NRAAA [NRAAA peptide], in experiment [1], the in vitro deamidation of the NRAAA peptide, LC-MS, deamidation rate against wild-type NTAN1 (fold lower than wild type) stood at 3.

B1: NLAAR peptide (peptide)
peptide: NLAAR
notes: model substrate peptide with N-terminal Asn; also called NLAAR pentapeptide; source: synthetic peptide
As to B1, binding in experiment [2] was put at a Kd of 26.8 nM.

B2: NAAAR peptide (peptide)
peptide: NAAAR
notes: model substrate peptide with N-terminal Asn; source: synthetic peptide
Consider B2, for which the Kd (commonly the free concentration of one partner at which half of the binding sites on the other are occupied at equilibrium, for simple one-to-one binding) in experiment [2] was 4670 nM. Compared with the last molecule, the Kd is about 170-fold higher.

B3: NFAAR peptide (peptide)
peptide: NFAAR
notes: model substrate peptide with N-terminal Asn; also called NFAAR pentapeptide; source: synthetic peptide
Consider B3, for which, in experiment [3], the binding result was “binds”.
